We go through nine molecules from patent US7863416B2, “Nociceptin-based analgesics” (Synvax, Inc., priority 2001, dated 2011).

Where two headings read alike, the source gives them in different places. Square brackets hold non-standard residues; d marks the D form. Peptide text beside a SMILES is read from it. * marks the point of attachment. Phe(4-CH2SO3H) = N[C@@H](Cc1ccc(CS(=O)(=O)O)cc1)C(=O)O; Phe(4-CH2NH2) = NCc1ccc(C[C@H](N)C(=O)O)cc1; Tyr(3-Cl) = N[C@@H](Cc1ccc(O)c(Cl)c1)C(=O)O; Phe(4-NH2) = Nc1ccc(C[C@H](N)C(=O)O)cc1; Tyr(BN∗,3-Cl) = not defined here; Hexanoyl = CCCCCC(=O)*; Pentanoyl = CCCCC(=O)* Some results are limits rather than exact numbers.

Assay [1] in a line: In vivo test for analgesic activity and potentiation of morphine analgesia.
Assay [2] concerns the target T1, human ORL1 (Homo sapiens, UniProt P41146).
T1 construct: expressed in transfected cells; host or cells: CHO cells (G418-selected)
The experiment in a line: Antagonism of nociceptin-stimulated [35S]GTPγS binding (inhibition, Schild analysis). The format is biochemical. In general terms: Binding of GTPγS marks nucleotide exchange on a G protein.

The target in assay [3] is T1, human ORL1. The experiment in a line: Stimulation of [35S]GTPγS binding in membranes of CHO cells transfected with human ORL-1. The format is biochemical. The note with it: for [35S]GTPγS Binding Percent Stimulation: relative to nociceptin; for agonist/antagonist character at ORL1: in words; for EC50 ± SEM, stimulation of [35S]GTPγS binding: Table 6; for Emax: read-out: % Stimulation ± SEM of [35S]GTPγS binding. On the procedure:
First, CHO cells transfected with human ORL-1 are scraped from tissue culture dishes into 20 mM HEPES, 1 mM EDTA, and then centrifuged at 500×g for 10 minutes. The cells are then re-suspended in this buffer and homogenized using a Polytron Homogenizer.
The cellular homogenate is next centrifuged at 20,000×g for 20 minutes. Following this, the resulting pellet is re-suspended in a buffer containing 20 mM HEPES, 10 mM MgCl2, and 100 mM NaCl, having a resulting pH of 7.4. The suspension is then re-centrifuged at 20,000×g and suspended once more in the above-listed buffer. The pellet may be frozen at −70° C. prior to the final centrifugation. For the binding assay, membranes (10-20 μg protein) are incubated with [^35S]GTPγγS (50 pM), GDP (usually 10 μM), and the desired compound. The total volume of the mixture is 1 ml, which is incubated for 60 min at 25° C.
Following incubation, samples are filtered over glass fiber filters and counted. […]
In these [^35S]GTPγS assays, binding was conducted as described above. EC50 values and percent stimulation were determined using the program Prism.

The target in assay [4] is T1, human ORL1. The assay can be described thus: [3H]nociceptin binding to membranes of CHO cells transfected with human ORL1. To be noted: for Hill Coefficient: Table 5.
The subject of assay [5] is mice. The experiment in a line: Tail flick assay, peptide alone, intracerebroventricular injection. For orientation: Thermal pain tests record how soon the animal reacts.
The subject of assay [6] is mice. The experiment in a line: Tail flick assay, peptide combined with morphine and/or N/OFQ (morphine-induced analgesia). Format: in vivo. On the procedure: The modified Boniferroni Test was used for these planned comparisons (p value was set at P<0.036). Doses were determined based on the potency of the compounds tested.
The antagonist was next assayed for the ability to reverse the inhibition of morphine-induced analgesia. In this assay, the control received morphine alone, while test animals received morphine +3 nmol of the antagonist, morphine +10 nmol of the antagonist. […] For each of these animals, response was measured at 5, 10, and 20 minutes after intracerebroventricular injection.
The agonist VII-87-B was further investigated by evaluating its ability to reverse morphine-induced analgesia. In this assay, the control animal received 10 nmols of morphine alone, while test animals received morphine +0.1 nmol of the agonist, morphine +1.0 nmol of the agonist, or morphine +10.0 nmol of the agonist. For each of these animals, response was measured at 5, 10, and 20 minutes after intracerebroventricular injection.
The agonist VII-39-D was then further investigated by evaluating its ability to reverse morphine-induced analgesia. In this assay, the control animal received 10 nmols of morphine alone, while test animals received morphine +0.1 nmol of the agonist, morphine +1.0 nmol of the agonist, or morphine +10.0 nmol of the agonist. For each of these animals, response was measured at 5, 10, and 20 minutes after intracerebroventricular injection.

T1 sequence (P41146 whole entry): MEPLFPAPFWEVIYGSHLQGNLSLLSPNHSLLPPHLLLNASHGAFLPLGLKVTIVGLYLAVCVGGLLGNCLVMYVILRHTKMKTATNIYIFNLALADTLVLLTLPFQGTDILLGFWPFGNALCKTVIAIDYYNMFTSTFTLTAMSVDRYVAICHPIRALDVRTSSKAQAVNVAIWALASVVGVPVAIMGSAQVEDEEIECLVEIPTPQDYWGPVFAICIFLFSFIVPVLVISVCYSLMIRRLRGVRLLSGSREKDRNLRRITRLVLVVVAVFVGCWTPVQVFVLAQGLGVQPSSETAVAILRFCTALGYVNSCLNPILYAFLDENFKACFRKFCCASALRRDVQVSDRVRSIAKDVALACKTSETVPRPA

Usually IC50 stands for the point on the concentration scale where inhibition reaches its midpoint. `CCCCCC(=O)N[C@@H](CCCNC(=N)N)C(=O)N[C@@H](Cc1ccc(O)cc1)C(=O)N[C@@H](Cc1ccc(O)cc1)C(=O)N[C@@H](CCCNC(=N)N)C(=O)N[C@@H](Cc1c[nH]c2ccccc12)C(=O)N[C@@H](CCCNC(=N)N)C(N)=O` [IV-17-C, Hexanoyl-RYYRWR-NH2] (Hexanoyl-RYYRWR-NH2): the “analgesic activity and potentiation of morphine analgesia in vivo” value in assay [1] is on record as “no measurable in vivo activity”. Further, the “potency as antagonist relative to N^1-Phe-nociceptin (1-13)NH2” value on human ORL1 [2] (FIG. 2) was “at least 10 times”. In addition, the “stimulation of [35S]GTPγS binding remaining” value on human ORL1 [2] (at 1 and 10 μM, with 10 nM nociceptin) was determined as 20%. Besides, the “[35S]GTPγS Binding Percent Stimulation” value on human ORL1 [3] (Table 1) was 18%. On human ORL1 [3], the “agonist/antagonist character at ORL1” value is recorded as “very low efficacy compound”. This molecule also registered an IC50 at human ORL1 [4] of 2.6 nM.
On to `CCCCC(=O)N[C@@H](CCCNC(=N)N)C(=O)N[C@@H](Cc1ccc(O)cc1)C(=O)N[C@@H](Cc1ccc(O)cc1)C(=O)N[C@@H](CCCNC(=N)N)C(=O)N[C@@H](Cc1c[nH]c2ccccc12)C(=O)N[C@@H](CCCNC(=N)N)C(N)=O` [VII-7-B, Pentanoyl-Arg-Tyr-Tyr-Arg-Trp-Arg-NH2] (Pentanoyl-RYYRWR-NH2), for which, in the assay with mice [5] (10.0 and 30.0 nmol icv, 10 and 20 minutes post-injection), the “analgesic effect (% antinociception)” value is “showed analgesic properties”. In addition, at human ORL1 [2] (FIG. 9), the “shift of nociceptin dose response curve” value is listed as “dose-dependent parallel shift”. Further, at human ORL1 [2] (nociceptin dose response curve), the “pA2, Schild analysis” value is given as 8.99±0.05 and the “slope, Schild analysis” value was −1.02. Besides, at human ORL1 [3], the “EC50 ± SEM, stimulation of [35S]GTPγS binding” value (shortened to “EC50 ± SEM, stimulation”) is recorded as “FLAT”; the “agonist/antagonist character at ORL1” value was “very potent antagonist”; the Emax is less than 20%. For the same molecule, the “Hill Coefficient” value on human ORL1 [4] stood at 0.8. In addition, in the assay with mice [6] (10 nmol alone or with N/OFQ, 5 minutes post-injection), the “effect on morphine-induced analgesia” value is given as “reduction in morphine-induced analgesia”. In addition, in the assay on mice [6] (10 and 20 minutes post injection), the “effect on nociceptin action on morphine analgesia” value is “did not alter the effects of nociceptin”. In the assay with mice [6] (morphine + nociceptin + 3 or 10 nmol antagonist icv, FIG. 11), the “reversal of nociceptin's inhibition of morphine-induced analgesia” value is on record as “did not reverse the inhibition of morphine-induced analgesia”.
As to `CC(=O)N[C@@H](CCCNC(=N)N)C(=O)N[C@@H](Cc1ccc(O)cc1)C(=O)N[C@@H](Cc1ccc(CS(=O)(=O)O)cc1)C(=O)N[C@@H](CCCNC(=N)N)C(=O)N[C@@H](Cc1c[nH]c2ccccc12)C(=O)N[C@@H](CCCNC(=N)N)C(N)=O` [VII-75-B, Ac-Arg-Tyr-Phe(4-CH2SO3H)-Arg-Trp-Arg-NH2] (Ac-RY[Phe(4-CH2SO3H)]RWR-NH2), at human ORL1 [3], the “EC50 ± SEM, stimulation” value was “FLAT” and the Emax was less than 20%. Besides, the “Hill Coefficient” value on human ORL1 [4] is reported as 0.75.
Consider `CC(=O)Nc1ccc(C[C@H](NC(=O)[C@H](Cc2ccc(O)cc2)NC(=O)[C@H](CCCNC(=N)N)NC(C)=O)C(=O)N[C@@H](CCCNC(=N)N)C(=O)N[C@@H](Cc2c[nH]c3ccccc23)C(=O)N[C@@H](CCCNC(=N)N)C(N)=O)cc1` [VII-77-A, Ac-Arg-Tyr-Phe(4-NHAc)-Arg-Trp-Arg-NH2] (Ac-RY[Phe(4-NH2)](Ac)RWR-NH2), for which the Emax on human ORL1 [3] came out at 19 ± 6.92%. In addition, the “Hill Coefficient” value at human ORL1 [4] is on record as 0.62.
With `CC(=O)N[C@@H](CCCNC(=N)N)C(=O)N[C@@H](Cc1ccc(O)cc1)C(=O)N[C@@H](Cc1ccc(CN)cc1)C(=O)N[C@@H](CCCNC(=N)N)C(=O)N[C@@H](Cc1c[nH]c2ccccc12)C(=O)N[C@@H](CCCNC(=N)N)C(N)=O` [VII-79-A, Ac-Arg-Tyr-Phe(4-CH2NH2)-Arg-Trp-Arg-NH2] (Ac-RY[Phe(4-CH2NH2)]RWR-NH2), on human ORL1 [3], the “EC50 ± SEM, stimulation” value was “FLAT” and the Emax is less than 20%. Moreover, at human ORL1 [4], the “Hill Coefficient” value turned out to be 0.89.
On to `CC(=O)N[C@@H](CCCNC(=N)N)C(=O)N[C@@H](Cc1ccc(O)c(Cl)c1)C(=O)N[C@@H](Cc1ccc(O)cc1)C(=O)N[C@@H](CCCNC(=N)N)C(=O)N[C@@H](Cc1c[nH]c2ccccc12)C(=O)N[C@@H](CCCNC(=N)N)C(N)=O` [VII-87-B, Ac-Arg-Tyr(3-Cl)-Tyr-Arg-Trp-Arg-NH2] (Ac-R[Tyr(3-Cl)]YRWR-NH2), for which, in the assay on mice [5] (10 nmol icv, 5, 10 and 20 minutes post-injection), the “effect on nociception (% antinociception)” value is listed as “induced pro-nociception”. Further, at human ORL1 [3], the “agonist/antagonist character at ORL1” value was “agonist” and the Emax turned out to be 72%. Moreover, the “reversal of morphine-induced analgesia” value in the assay on mice [6] (morphine 10 nmol + 0.1, 1.0, 10.0 nmol agonist icv, at 10 and 20 minutes with 10 nmol) is reported as “dose-dependent reversal of morphine-induced analgesia”.
In the case of “Ac-Arg-Tyr(BN*, 3-Cl)-Tyr-Arg-Trp-Arg-NH2 (Ac-R[Tyr(BN∗,3-Cl)]YRWR-NH2; reading uncertain; also: printed as Ac-Arg-Tyr(BN*, 3-Cl)-Tyr-Arg-Trp-Arg-NH2) [VII-39-D]”, the “effect on nociception (% antinociception)” value in the assay on mice [5] (0.1, 1.0 or 10.0 nmol icv, 5, 10 and 20 minutes post-injection) is “did not induce anti- or pro-nociception”. Further, the “agonist/antagonist character at ORL1” value with human ORL1 [3] is on record as “full agonist”. Further, the “Hill Coefficient” value with human ORL1 [4] was determined as 1.03. For the same molecule, in the assay on mice [6] (morphine 10 nmol + 1.0 and 10 nmol agonist icv, 5, 10 and 20 minutes), the “effect on morphine-induced analgesia” value is “attenuation of morphine-induced analgesia”.
The EC50 is the concentration at which the effect is half-maximal. Regarding Ac-RY(D)YR(D)WRNH2 [IV-12-B], on human ORL1 [3] (Table 1, read-out: [35S]GTPγS Binding EC50), the EC50 is more than 10000 nM. Further, the “[35S]GTPγS Binding Percent Stimulation” value on human ORL1 [3] (Table 1) is less than 10%. For the same molecule, the IC50 at human ORL1 [4] (read-out: [3H]nociceptin Binding IC50, Table 1) stood at 1140 nM.
As for “β-Nva-Arg-Tyr-Tyr-Arg-Trp-Arg-NH2 (βNva-RYYRWR-NH2) [VII-2-A]”, the “EC50 ± SEM, stimulation” value in the assay with human ORL1 [3] is reported as “FLAT”. Also, the “Hill Coefficient” value in the assay with human ORL1 [4] worked out at 1.0.
